# From patent US6741954B2, “Selection method for odorants” (Symrise GmbH & Co. KG, priority 2000, dated 2004)
# Where two headings read alike, the source gives them in different places.
# Legend:
# Assay type in all cases: physicochemical
# [1] = Headspace above the shampoo: relative partition parameter (SPME-GC); conditions: log of amount in headspace relative to amount in shampoo; 1% odorant mixture, SPME 15 min
# Protocol: (§1) The procedure is analogous in all examples.
# The example reflects the scent impression, which is perceived from a freshly opened bottle of shampoo. The mixture of 39 odorants is incorporated into the above-mentioned shampoo (1) in an amount of 1%. 20 g of the shampoo are transferred to a 100 ml Erlenmeyer flask sealed with a septum. The headspace above the shampoo is extracted using a SPME over 15 min. […] The analytical results are then used mathematically as described above.
# [2] = Headspace above the fresh gel room air freshener: relative partition parameter (SPME-GC); conditions: log of amount in headspace relative to amount in gel; 5% odorant mixture, 10 liter vessel, 1 h, SPME 15 min
# Protocol: as §1
# The example reflects the scent impression, which is perceived above a fresh gel room air freshener. The mixture of 39 odorants is incorporated into an air freshener in an amount of 5%. 100 g of the air freshener are placed in its customary presentation form in a large sealed 10 liter vessel. The air freshener is left to stand for one hour. The headspace above the air freshener is extracted using a SPME over 15 min. […] The analytical results are then used mathematically as described above.
# [3] = Headspace above the wet washed hair: relative partition parameter headspace/shampoo (SPME-GC)
# Protocol: as §1
# The example reflects the scent impression, which is perceived from freshly washed hair. The shampoo is prepared as is generally customary. The mixture of 39 odorants is incorporated into the above-mentioned shampoo (1st) in an amount of 1%. A hair tress (2.5 g) is washed in 100 ml of a 20% shampoo solution in water by immersing 5-10 times and stirring, and then rinsed in 100 ml of clear water by immersing it three times. The hair tress is carefully patted with thin cellulose. The moist hair tress is transferred to a 100 ml Erlenmeyer flask sealed with a septum and left to stand for 3 h. The headspace above the washed and rinsed hair tress is extracted over 15 min using solid phase microextraction (SPME). The SPME needle is desorbed in a GC injector, and a gas chromatogram is recorded. […] The analytical results are then used mathematically as described above.
# [4] = Headspace above the washing powder: relative partition parameter (SPME-GC)
# Protocol: as §1
# The example reflects the scent impression, which is perceived from a freshly opened pack of laundry detergent. The mixture of 39 odorants is incorporated in the above-mentioned washing powder in an amount of 0.5%. 20 g of the washing powder are transferred to a 100 ml Erlenmeyer flask sealed with a septum. The headspace above the shampoo is extracted using a SPME over 15 min. […] The analytical results are then used mathematically as described above.
# [5] = Headspace above the candle wax: relative partition parameter (SPME-GC); conditions: log of amount in headspace relative to amount in candle wax; 5% odorant mixture, grated nonburning candle, SPME 15 min
# Protocol: as §1
# The example reflects the scent impression, which is perceived from a nonburning candle. The mixture of 39 odorants is incorporated into a candle in an amount of 5%. 20 g of the grated candle are transferred to a 100 ml Erlenmeyer flask sealed with a septum. The headspace above the candle is extracted using a SPME over 15 min. […] The analytical results are then used mathematically as described above.
# [6] = Headspace above the solution of WC scented block cleaner: relative partition parameter (SPME-GC); conditions: log of amount in headspace above 1% solution in water relative to amount in WC block; 1% odorant mixture, SPME 15 min
# Protocol: as §1
# The example reflects the scent impression, which is perceived from a WC scented block cleaner. The mixture of 39 odorants is incorporated into the toilet block in an amount of 1%. A 1% solution of the toilet block in water is prepared. 20 ml of this solution are transferred to a 100 ml Erlenmeyer flask sealed with a septum. The headspace above the shampoo is extracted by means of a SPME over 15 min. […] The analytical results are then used mathematically as described above.
# [7] = Headspace above the soap bar: relative partition parameter (SPME-GC)
# Protocol: as §1
# The example reflects the scent impression, which is perceived from a fresh bar of soap. […] 20 g of the grated soap are transferred to a 100 ml Erlenmeyer flask sealed with a septum. The headspace above the shampoo is extracted using a SPME over 15 min. […] The analytical results are then used mathematically as described above.
# [8] = log of amount in headspace above wet washed hair relative to amount in shampoo, 1% odorant mixture, 3 h standing, SPME 15 min
# [9] = log of amount in headspace relative to amount in washing powder, 0.5% odorant mixture, SPME 15 min
# [10] = log of amount in headspace relative to amount in soap, 1.2% odorant mixture, grated soap, SPME 15 min
Compound,Activity (logarithmic partition parameter above shampoo) [1],Activity (logarithmic partition parameter above gel room air fresheners) [2],"Activity (logarithmic partition parameter above wet hair) [3, 8]","Activity (logarithmic partition parameter above washing powder) [4, 9]",Activity (logarithmic partition parameter above candle wax) [5],Activity (logarithmic partition parameter above dissolved WC scented block cleaners) [6],"Activity (logarithmic partition parameter above soap) [7, 10]",Activity (logarithmic partition parameter above wet hair) [3],Activity (logarithmic partition parameter above washing powder) [4],Activity (logarithmic partition parameter above soap) [7]
CC(C=O)Cc1ccc(C(C)(C)C)cc1 (stereo not shown) [Lilial],−1.900,−1.548,−2.089,−1.448,−2.105,−1.400,−1.331,,,
C=CC(C)(O)CCC=C(C)C (stereo not shown) [Linalool],−0.511,0.376,−1.119,0.057,−0.420,−1.299,−0.028,,,
"OCCc1ccccc1 [PEA, phenylethyl alcohol]",−0.742,0.245,−1.349,−0.176,−0.632,−1.636,0.170,,,
CC(=O)OCC=C(C)C [Prenyl acetate],0.844,0.674,−0.299,1.167,0.726,−1.070,1.180,,,
CC(=O)OC(C)c1ccccc1 (stereo not shown) [Styrolyl acetate],−0.232,0.568,−1.029,0.246,−0.341,−1.320,0.486,,,
CC(=O)OC(C)(C)C1CC=C(C)CC1 (stereo not shown) [Terpinyl acetate],−0.561,−0.029,,,−0.979,−0.524,,−1.135,−0.196,−0.253
CC1=CCC2CC1C2(C)C (stereo not drawn) [alpha-Pinene],0.769,−0.273,−0.776,0.377,0.819,−1.833,0.395,,,
C=C1CCC2CC1C2(C)C (stereo not drawn) [beta-Pinene],0.830,−0.090,−0.647,0.415,0.701,−1.682,0.469,,,
CC1=CCC(C(C)C)=CC1 [gamma-Terpinene],1.009,0.126,−0.074,0.771,0.342,−1.230,0.819,,,
Caryophyllene,−0.279,−0.011,,,−1.062,−0.390,,−1.080,−0.385,−0.150
